{
  "source": "ChEMBL document CHEMBL1938396",
  "about": "“Synthesis of new praziquantel analogues: potential candidates for the treatment of schistosomiasis” (2012)",
  "test_system": "Schistosoma mansoni",
  "assay": "Antischistosomal activity against Schistosoma mansoni assessed as worm survival incubated for overnight followed by drug washout measured on day 7",
  "assay_type": "functional",
  "data": [
    {"smiles": "Cc1ccc(S(=O)(=O)N2CC(=O)N3CCc4ccccc4C3C2)cc1", "note": "(stereo not given)", "values": [
      {"measurement": "LC90", "value": ">10", "unit": "µM"}
    ]},
    {"smiles": "O=C(C1CCCC1)N1CC(=O)N2CCc3ccccc3C2C1", "note": "(stereo not given)", "values": [
      {"measurement": "LC90", "value": 10, "unit": "µM"}
    ]},
    {"smiles": "COc1cc2c(cc1OC)C1CN(C(=O)C3CCCCC3)CC(=O)N1CC2", "note": "(stereo not given)", "values": [
      {"measurement": "LC90", "value": 50, "unit": "µM"}
    ]},
    {"smiles": "COc1cc2c(cc1OC)C1CN(C(=O)C3CCCC3)CC(=O)N1CC2", "note": "(stereo not given)", "values": [
      {"measurement": "LC90", "value": 25, "unit": "µM"}
    ]},
    {"smiles": "COc1cc2c(cc1OC)C1CN(S(=O)(=O)c3ccc(C)cc3)CC(=O)N1CC2", "note": "(stereo not given)", "values": [
      {"measurement": "LC90", "value": ">100", "unit": "µM"}
    ]},
    {"smiles": "COc1cc2c(cc1OC)C1CN(C(=O)c3ccc(C(F)(F)F)cc3)CC(=O)N1CC2", "note": "(stereo not given)", "values": [
      {"measurement": "LC90", "value": ">100", "unit": "µM"}
    ]},
    {"smiles": "O=C1C(=O)N2CCc3ccccc3C2CN1C(=O)C1CCCCC1", "note": "(stereo not given)", "values": [
      {"measurement": "LC90", "value": ">100", "unit": "µM"}
    ]},
    {"smiles": "O=C1C(=O)N2CCc3ccccc3C2CN1C(=O)C1CCCC1", "note": "(stereo not given)", "values": [
      {"measurement": "LC90", "value": ">100", "unit": "µM"}
    ]},
    {"smiles": "Cc1ccc(S(=O)(=O)N2CC3c4ccccc4CCN3C(=O)C2=O)cc1", "note": "(stereo not given)", "values": [
      {"measurement": "LC90", "value": ">100", "unit": "µM"}
    ]},
    {"smiles": "O=C1C(=O)N2CCc3ccccc3C2CN1C(=O)c1ccc(C(F)(F)F)cc1", "note": "(stereo not given)", "values": [
      {"measurement": "LC90", "value": ">100", "unit": "µM"}
    ]},
    {"smiles": "O=C(CC1CCCCC1)N1CC2c3ccccc3CCN2C(=O)C1=O", "note": "(stereo not given)", "values": [
      {"measurement": "LC90", "value": ">100", "unit": "µM"}
    ]},
    {"smiles": "O=C(C1CCCCC1)N1CC(=O)N2CCc3c([nH]c4ccccc34)C2C1", "note": "(stereo not given)", "values": [
      {"measurement": "LC90", "value": 25, "unit": "µM"}
    ]},
    {"smiles": "O=C(c1ccc(C(F)(F)F)cc1)N1CC(=O)N2CCc3c([nH]c4ccccc34)C2C1", "note": "(stereo not given)", "values": [
      {"measurement": "LC90", "value": 50, "unit": "µM"}
    ]},
    {"smiles": "O=C(C1CCCCC1)N1CC(=O)N2CCc3c(n(Cc4ccccc4)c4ccccc34)C2C1", "note": "(stereo not given)", "values": [
      {"measurement": "LC90", "value": 25, "unit": "µM"}
    ]},
    {"smiles": "O=C(c1ccc(C(F)(F)F)cc1)N1CC(=O)N2CCc3c(n(Cc4ccccc4)c4ccccc34)C2C1", "note": "(stereo not given)", "values": [
      {"measurement": "LC90", "value": ">100", "unit": "µM"}
    ]},
    {"smiles": "O=C1C(=O)N2CCc3c(n(Cc4ccccc4)c4ccccc34)C2CN1C(=O)C1CCCCC1", "note": "(stereo not given)", "values": [
      {"measurement": "LC90", "value": ">100", "unit": "µM"}
    ]},
    {"smiles": "O=C1C(=O)N2CCc3c(n(Cc4ccccc4)c4ccccc34)C2CN1C(=O)C1CCCC1", "note": "(stereo not given)", "values": [
      {"measurement": "LC90", "value": ">100", "unit": "µM"}
    ]},
    {"smiles": "O=C1C(=O)N2CCc3c(n(Cc4ccccc4)c4ccccc34)C2CN1C(=O)c1ccc(C(F)(F)F)cc1", "note": "(stereo not given)", "values": [
      {"measurement": "LC90", "value": ">100", "unit": "µM"}
    ]},
    {"smiles": "O=C(CC1CCCCC1)N1CC2c3c(c4ccccc4n3Cc3ccccc3)CCN2C(=O)C1=O", "note": "(stereo not given)", "values": [
      {"measurement": "LC90", "value": ">100", "unit": "µM"}
    ]},
    {"smiles": "O=C(C1CCCCC1)N1CC(=O)N2CCc3ccccc3C2C1", "note": "(stereo not given) [PRAZIQUANTEL]", "values": [
      {"measurement": "LC90", "value": 3, "unit": "µM"}
    ]}
  ]
}
